Measurements from patent US6599499B1, “Uses of diterpenoid triepoxides as an anti-proliferative agent” (priority 1999, dated 2003).

Legend:
Dx5 cells = assay: Cell survival of Bcl-2 or vector transfected Dx5 cells (X-gal staining); assay type: cell-based, human; settings: PG490 20 ng/ml, 36 h
Procedure: Cells were cultured in the appropriate medium with 10% FCS supplemented with L-glutamine, penicillin and streptomycin. To examine the effect of Bcl-2 on cell survival, the Bcl-2 expression vector or the vector alone was co-transfected with a β galactosidase expression vector (Invitrogen, Carlsbad, Calif.) at a 5:1 ratio using lipofectamine plus (GIBCO BRL, Gaithersburg, Md.) into Dx5 cells. After 36 h cells were stained with 5-bromo4-chloro-3-indolyl □-D-galactopyranoside (X-gal). Cell survival was calculated as number of total cells-blue cells/total number of cells in a 90 mm^2 area from duplicate plates and expressed as the mean ±S.D.
Bcl-2 or vector control was transiently transfected into Dx5 cells followed by the addition of PG490 (20 ng/ml) and stained 36 h later with X-gal. % cell survival was calculated as total cells-blue cells/total cells×100. z-VAD.fmk (100 µM) was added to Dx5 cells 1 h prior to the addition of PG490 (20 ng/ml) and cells were harvested for analysis of cell viability 36 h later by annexin and propidium iodide staining followed by FACS analysis. Data represents the mean of three replicates from two independent experiments ±S.D.

H23 human tumor cells = test system: H23 human tumor cells
Procedure: Cell death reagents and assays. Cell viability was measured by an MTT assay as recently described (Lee et al. (1999) J. Biol. Chem. 274:13451-13455. z-VAD-fluoromethylketone (z-VAD.fmk) was obtained from Alexis Biochemicals, San Diego, Calif. The effect of z-VAD.fmk on cell viability was analyzed by annexin and propidium iodide staining followed by FACS analysis according to the manufacturer's protocol (Clontech Laboratories, Palo Alto, Calif.). The analysis of apoptosis in histologic sections was done by terminal deoxynucleotidyl transferase (TdT)-mediated d-UTP nick end labeling (TUNEL) of slides from paraffin sections of day 3 tumors harvested from the mice 24 h after the second of two daily treatments with PG490-88 or saline. TUNEL staining was done according to the manufacturer's protocol (Boehringer Mannheim, Indianapolis, Ind.) and then the histology slides were counterstained with methyl green. DNA was isolated from cells for analysis of internucleosomal DNA laddering followed by agarose gel electrophoresis and ethidium bromide staining.
Nude mouse xenograft model. Female NCr nude mice were purchased from Taconic, Germantown, N.Y., and were generally 20-24 grams when used. Mice were kept in autoclaved filter-top microisolator cages with autoclaved water and sterile food ad lib. The cages were maintained in an isolator unit providing filtered air (Lab Products, Inc., Maywood, N.J.). Tumor cells were grown and harvested as described above. NCr nude mice were injected intradermally with 5×10^6 tumor cells. In some experiments, treatment was initiated on the day of tumor cell implantation. […] Mice were treated IP daily for 5 days per week.
H23 tumor cells were implanted intradermally in nude mice. When the tumors reached approximately 100 mm^3, daily IP treatment with PG490-88 was initiated. […] The data in FIG. 3 represents the measurement of H23 tumor volume on day 14 after the initiation of treatment. Nude mice bearing xenografts of H23 human tumor cells were treated daily as shown. The data represent the means and the standard errors of the means of the tumor volumes as percent of the day 0 tumor volumes for each animal measured day 3, 6, 10 and 14 days after the initiation of treatment. There were 5 mice per group.

Row | Structure (SMILES) | cell survival (Dx5 cells; overexpression of Bcl-2) | cell survival (Dx5 cells; vector control) | decrease of mean tumor size from the initial value at day 0 (H23 human tumor cells; PG490-88 0.75 mg/kg/day, day 14) | decrease of tumor size relative to the day 14 vehicle control (H23 human tumor cells; PG490-88 alone 0.75 mg/kg/day, combination PG490-88 0.25 mg/kg/day plus taxol 10 mg/kg/day) | inhibition of tumor growth (H23 human tumor cells; daily IP PG490-88) | TUNEL staining of tumor sections (H23 human tumor cells; day 3 tumors, compared to saline-treated animals) | tumor volume as % of the vehicle control (H23 human tumor cells; day 14, PG490-88 0.25 mg/kg/day, taxol 10 mg/kg/day, IP)
1 | CC(C)[C@]12O[C@H]1[C@@H]1O[C@]13[C@]1(O[C@H]1C[C@H]1C4=C(CC[C@@]13C)C(=O)OC4)[C@@H]2O [PG490, triptolide] | 72% | 15% |  |  |  |  | 
2 | CC(C)[C@]12O[C@H]1[C@@H]1O[C@]13[C@]1(O[C@H]1C[C@H]1C4=C(CC[C@@]13C)C(=O)OC4)[C@@H]2OC(=O)CCC(=O)[O-].[Na+] [PG490-88, 14-succinyl triptolide sodium salt] |  |  | 61% | 97% | inhibited tumor growth in a dose-dependent manner | many TUNEL-positive cells | 21%
